This note sets out measurements from the NIST ThermoML archive (doi:10.1016/j.fluid.2014.07.015).

Numbers after ± are expanded uncertainties.

The conditions of this series: 101.33 kPa, Liquid, Vibrating tube method.

The term mass density denotes the mass of a sample divided by its volume. Consider `CCCC[P+](C)(CCCC)CCCC.O=S(=O)([N-]S(=O)(=O)C(F)(F)F)C(F)(F)F`, for which the mass density runs as follows: (278.15 K) 1270.8 ± 1.4 kg/m3; (283.15 K) 1266.52 ± 1.4 kg/m3; (288.15 K) 1262.25 ± 1.4 kg/m3; (293.15 K) 1257.99 ± 1.4 kg/m3; (298.15 K) 1253.72 ± 1.4 kg/m3; (303.15 K) 1249.58 ± 1.4 kg/m3. Besides, the mass density runs as follows: (308.15 K) 1245.46 ± 1.4 kg/m3; (313.15 K) 1241.32 ± 1.4 kg/m3; (318.15 K) 1237.2 ± 1.4 kg/m3; (323.15 K) 1233.09 ± 1.4 kg/m3; (328.15 K) 1228.98 ± 1.4 kg/m3; (333.15 K) 1224.88 ± 1.3 kg/m3. Further, the mass density runs as follows: (338.15 K) 1220.79 ± 1.3 kg/m3; (343.15 K) 1216.71 ± 1.3 kg/m3; (348.15 K) 1212.65 ± 1.3 kg/m3; (353.15 K) 1208.59 ± 1.3 kg/m3.
With `CCCCn1cc[n+](C)c1C.O=S(=O)([N-]S(=O)(=O)C(F)(F)F)C(F)(F)F`, the mass density is, setting by setting: (278.15 K) 1437.39 ± 0.29 kg/m3; (283.15 K) 1432.61 ± 0.28 kg/m3; (288.15 K) 1427.91 ± 0.28 kg/m3; (293.15 K) 1423.31 ± 0.28 kg/m3; (298.15 K) 1418.69 ± 0.28 kg/m3; (303.15 K) 1414.07 ± 0.28 kg/m3. Also, the mass density came to 1409.46 ± 0.28 kg/m3 (308.15 K); 1404.86 ± 0.27 kg/m3 (313.15 K); 1400.25 ± 0.27 kg/m3 (318.15 K); 1395.67 ± 0.27 kg/m3 (323.15 K); 1391.1 ± 0.27 kg/m3 (328.15 K); 1386.54 ± 0.27 kg/m3 (333.15 K). Also, the mass density reads like this: (338.15 K) 1381.98 ± 0.27 kg/m3; (343.15 K) 1377.44 ± 0.27 kg/m3; (348.15 K) 1372.92 ± 0.26 kg/m3; (353.15 K) 1368.39 ± 0.26 kg/m3.
